Data from US5747484A, “Crystalline cepham acid addition salts and processes for their preparation” (Hoechst Aktiengesellschaft, priority 1994, dated 1998).
Where a name gives a salt, the structure may show the parent alone.

Settings: bovine, in vivo, im, 5 mg/kg
Procedure: The terminal half-lives (t1/2) after single injection (i.m.) of 5 mg of betaine VI (n=2) per kg of body weight for cattle are summarized in Table 1 for compounds according to the invention. […] The known salts sulfate and dihydroiodide from DE 3 706 020 are used as a standard.

Row | SMILES | Terminal half-lives (t1/2) [h]
1 | CO/N=C(\C(=O)N[C@@H]1C(=O)N2C(C(=O)[O-])=C(C[n+]3cccc4c3CCCC4)CS[C@H]12)c1csc(N)n1 [Dihydroiodide, reference compound] | 4.19
2 | CO/N=C(\C(=O)N[C@@H]1C(=O)N2C(C(=O)[O-])=C(C[n+]3cccc4c3CCCC4)CS[C@H]12)c1csc(N)n1 [Example 1, Cefquinome-6-hydroxy-1-naphthoate] | 9.20
3 | CO/N=C(\C(=O)N[C@@H]1C(=O)N2C(C(=O)[O-])=C(C[n+]3cccc4c3CCCC4)CS[C@H]12)c1csc(N)n1 [Example 2] | 18.8
4 | CO/N=C(\C(=O)N[C@@H]1C(=O)N2C(C(=O)[O-])=C(C[n+]3cccc4c3CCCC4)CS[C@H]12)c1csc(N)n1 [Example 6] | 5.87
5 | CO/N=C(\C(=O)N[C@@H]1C(=O)N2C(C(=O)[O-])=C(C[n+]3cccc4c3CCCC4)CS[C@H]12)c1csc(N)n1 [Example 9] | 15.6
6 | CO/N=C(\C(=O)N[C@@H]1C(=O)N2C(C(=O)[O-])=C(C[n+]3cccc4c3CCCC4)CS[C@H]12)c1csc(N)n1 [Example 11, cefquinome-2,4-dihydroxybenzoate] | 16.20
7 | CO/N=C(\C(=O)N[C@@H]1C(=O)N2C(C(=O)[O-])=C(C[n+]3cccc4c3CCCC4)CS[C@H]12)c1csc(N)n1 [Example 12] | 15.20
8 | CO/N=C(\C(=O)N[C@@H]1C(=O)N2C(C(=O)[O-])=C(C[n+]3cccc4c3CCCC4)CS[C@H]12)c1csc(N)n1 [Example 13] | 9.21
9 | CO/N=C(\C(=O)N[C@@H]1C(=O)N2C(C(=O)[O-])=C(C[n+]3cccc4c3CCCC4)CS[C@H]12)c1csc(N)n1 [Example 15] | 11.1
10 | CO/N=C(\C(=O)N[C@@H]1C(=O)N2C(C(=O)[O-])=C(C[n+]3cccc4c3CCCC4)CS[C@H]12)c1csc(N)n1 [Example 16] | 9.16
11 | CO/N=C(\C(=O)N[C@@H]1C(=O)N2C(C(=O)[O-])=C(C[n+]3cccc4c3CCCC4)CS[C@H]12)c1csc(N)n1 [Example 17] | 17.8
12 | CO/N=C(\C(=O)N[C@@H]1C(=O)N2C(C(=O)[O-])=C(C[n+]3cccc4c3CCCC4)CS[C@H]12)c1csc(N)n1 [Example 18] | 13.00
13 | CO/N=C(\C(=O)N[C@@H]1C(=O)N2C(C(=O)[O-])=C(C[n+]3cccc4c3CCCC4)CS[C@H]12)c1csc(N)n1 [Example 19] | 7.07
14 | CO/N=C(\C(=O)N[C@@H]1C(=O)N2C(C(=O)[O-])=C(C[n+]3cccc4c3CCCC4)CS[C@H]12)c1csc(N)n1 [Example 20] | 9.39
15 | CO/N=C(\C(=O)N[C@@H]1C(=O)N2C(C(=O)[O-])=C(C[n+]3cccc4c3CCCC4)CS[C@H]12)c1csc(N)n1 [Example 21] | 9.96
16 | CO/N=C(\C(=O)N[C@@H]1C(=O)N2C(C(=O)[O-])=C(C[n+]3cccc4c3CCCC4)CS[C@H]12)c1csc(N)n1 [Example 22] | 8.77
17 | CO/N=C(\C(=O)N[C@@H]1C(=O)N2C(C(=O)[O-])=C(C[n+]3cccc4c3CCCC4)CS[C@H]12)c1csc(N)n1 [Example 23] | 12.70
18 | CO/N=C(\C(=O)N[C@@H]1C(=O)N2C(C(=O)[O-])=C(C[n+]3cccc4c3CCCC4)CS[C@H]12)c1csc(N)n1 [Sulfate, cefquinome sulfate, reference compound] | 2.15
